# Source: ChEMBL document CHEMBL1926642, “Relevance of the C-5 position to schweinfurthin induced cytotoxicity” (2011)
# What was measured:
# Format in all cases: functional
# RXF 393 = test: Growth inhibition of human RXF393 cells after 48 hrs by sulforhodamine B assay; settings: RXF 393, 48 h
# MCF7 = test: Growth inhibition of human MCF7 cells after 48 hrs by sulforhodamine B assay; settings: MCF7, 48 h
# HOP-62 = test: Growth inhibition of human HOP62 cells after 48 hrs by sulforhodamine B assay; settings: HOP-62, 48 h
# LOX IMVI = test: Growth inhibition of human LOXIMVI cells after 48 hrs by sulforhodamine B assay
# HT-29 = test: Growth inhibition of human HT-29 cells after 48 hrs by sulforhodamine B assay; settings: HT-29, 48 h
# OVCAR-8 = test: Growth inhibition of human OVCAR8 cells after 48 hrs by sulforhodamine B assay; settings: OVCAR-8, 48 h
# ACHN = test: Growth inhibition of human ACHN cells after 48 hrs by sulforhodamine B assay
# HCT-116 = test: Growth inhibition of human HCT116 cells after 48 hrs by sulforhodamine B assay; settings: HCT-116, 48 h
# UACC-62 = test: Growth inhibition of human UACC62 cells after 48 hrs by sulforhodamine B assay; settings: UACC-62, 48 h
# MDA-MB-468 = test: Growth inhibition of human MDA-MB-468 cells after 48 hrs by sulforhodamine B assay; settings: MDA-MB-468, 48 h
# U-251 = test: Growth inhibition of human U251 cells after 48 hrs by sulforhodamine B assay; settings: U-251, 48 h
# MOLT-4 = test: Growth inhibition of human MOLT4 cells after 48 hrs by sulforhodamine B assay; settings: MOLT-4, 48 h
# Malme-3M = test: Growth inhibition of human MALME-3M cells after 48 hrs by sulforhodamine B assay
# HCC 2998 = test: Growth inhibition of human HCC2998 cells after 48 hrs by sulforhodamine B assay; settings: HCC 2998, 48 h
# SF-295 = test: Growth inhibition of human SF295 cells after 48 hrs by sulforhodamine B assay; settings: SF-295, 48 h
# SNB-19 = test: Growth inhibition of human SNB19 cells after 48 hrs by sulforhodamine B assay; settings: SNB-19, 48 h
# CCRF-CEM = test: Growth inhibition of human CCRF-CEM cells after 48 hrs by sulforhodamine B assay
# NCI/ADR-RES = test: Growth inhibition of human NCI/ADR-RES cells after 48 hrs by sulforhodamine B assay
# COLO 205 = test: Growth inhibition of human COLO205 cells after 48 hrs by sulforhodamine B assay; settings: COLO 205, 48 h
# SR = test: Growth inhibition of human SR cells after 48 hrs by sulforhodamine B assay
# IGROV-1 = test: Growth inhibition of human IGROV1 cells after 48 hrs by sulforhodamine B assay; settings: IGROV-1, 48 h
# SF-268 = test: Growth inhibition of human SF268 cells after 48 hrs by sulforhodamine B assay; settings: SF-268, 48 h
# EKVX = test: Growth inhibition of human EKVX cells after 48 hrs by sulforhodamine B assay
# M14 = test: Growth inhibition of human M14 cells after 48 hrs by sulforhodamine B assay; settings: M14, 48 h
# NCI-H522 = test: Growth inhibition of human NCI-H522 cells after 48 hrs by sulforhodamine B assay; settings: NCI-H522, 48 h
# DU-145 = test: Growth inhibition of human DU145 cells after 48 hrs by sulforhodamine B assay; settings: DU-145, 48 h
# UO-31 = test: Growth inhibition of human UO31 cells after 48 hrs by sulforhodamine B assay; settings: UO-31, 48 h
compound,measurement,setting,value
COc1cc(/C=C/c2cc3c(c(SC)c2)O[C@]2(C)CC[C@@H](O)C(C)(C)[C@H]2C3)cc(O)c1C/C=C(\C)CCC=C(C)C,GI50,RXF 393,1.55 µM
same,LC50 (50% lethal concentration),RXF 393,17.8 µM
same,TGI,RXF 393; read-out: pTGI (converted),4.47 µM
same,GI50,MCF7,7.76 µM
same,LC50,MCF7,> 100 µM
same,TGI,MCF7; read-out: pTGI (converted),45.7 µM
same,GI50,HOP-62,12 µM
same,LC50,HOP-62,79.4 µM
same,TGI,HOP-62; read-out: pTGI (converted),30.9 µM
same,GI50,LOX IMVI,4.37 µM
same,LC50,LOX IMVI,47.9 µM
same,TGI,LOX IMVI; read-out: pTGI (converted),13.2 µM
same,GI50,HT-29,2.09 µM
same,LC50 (concentration killing 50% of cells),HT-29,> 100 µM
same,TGI,HT-29; read-out: pTGI (converted),16.2 µM
same,GI50,OVCAR-8,14.8 µM
same,LC50,OVCAR-8,> 100 µM
same,TGI,OVCAR-8; read-out: pTGI (converted),41.7 µM
same,GI50,ACHN,10.7 µM
same,LC50,ACHN,> 100 µM
same,TGI,ACHN; read-out: pTGI (converted),> 100 µM
same,GI50,HCT-116,6.46 µM
same,LC50,HCT-116,53.7 µM
same,TGI,HCT-116; read-out: pTGI (converted),20.9 µM
same,GI50,UACC-62,7.08 µM
same,LC50 (50% lethal concentration),UACC-62,> 100 µM
same,TGI,UACC-62; read-out: pTGI (converted),28.8 µM
same,GI50,MDA-MB-468,4.57 µM
same,LC50,MDA-MB-468,87.1 µM
same,TGI,MDA-MB-468; read-out: pTGI (converted),20 µM
same,GI50,U-251,5.01 µM
same,LC50,U-251,85.1 µM
same,TGI,U-251; read-out: pTGI (converted),24 µM
same,GI50,MOLT-4,4.27 µM
same,LC50,MOLT-4,> 100 µM
same,TGI,MOLT-4; read-out: pTGI (converted),100 µM
same,GI50,Malme-3M,30.9 µM
same,LC50,Malme-3M,> 100 µM
same,TGI,Malme-3M; read-out: pTGI (converted),> 100 µM
same,GI50,HCC 2998,12 µM
same,LC50,HCC 2998,> 100 µM
same,TGI,HCC 2998; read-out: pTGI (converted),38.9 µM
same,LC50,SF-295,> 100 µM
same,GI50,SF-295; read-out: GI50,3.8 µM
same,GI50,SF-295; read-out: pGI50 (converted),3.02 µM
same,TGI,SF-295; read-out: pTGI (converted),25.1 µM
same,GI50,SNB-19,28.2 µM
same,LC50,SNB-19,> 100 µM
same,TGI,SNB-19; read-out: pTGI (converted),> 100 µM
same,GI50,CCRF-CEM,5.62 µM
same,LC50,CCRF-CEM,> 100 µM
same,TGI,CCRF-CEM; read-out: pTGI (converted),> 100 µM
same,GI50,NCI/ADR-RES,11 µM
same,LC50,NCI/ADR-RES,> 100 µM
same,TGI,NCI/ADR-RES; read-out: pTGI (converted),38 µM
same,GI50,COLO 205,1.35 µM
same,LC50,COLO 205,7.08 µM
same,TGI,COLO 205; read-out: pTGI (converted),3.09 µM
same,GI50,SR,3.8 µM
same,LC50,SR,> 100 µM
same,TGI,SR; read-out: pTGI (converted),> 100 µM
same,GI50,IGROV-1,39.8 µM
same,LC50,IGROV-1,> 100 µM
same,TGI,IGROV-1; read-out: pTGI (converted),> 100 µM
same,GI50,SF-268,7.41 µM
same,LC50,SF-268,> 100 µM
same,TGI,SF-268; read-out: pTGI (converted),61.7 µM
same,GI50,EKVX,40.7 µM
same,LC50 (50% lethal concentration),EKVX,> 100 µM
same,TGI,EKVX; read-out: pTGI (converted),> 100 µM
same,GI50,M14,8.13 µM
same,LC50,M14,95.5 µM
same,TGI,M14; read-out: pTGI (converted),28.8 µM
same,GI50,NCI-H522,12 µM
same,LC50,NCI-H522,93.3 µM
same,TGI,NCI-H522; read-out: pTGI (converted),33.1 µM
same,GI50,DU-145,8.71 µM
same,LC50,DU-145,93.3 µM
same,TGI,DU-145; read-out: pTGI (converted),29.5 µM
same,GI50,UO-31,8.91 µM
same,LC50,UO-31,> 100 µM
same,TGI,UO-31; read-out: pTGI (converted),> 100 µM
